Source: patent publication US20220364989A1, “METHOD FOR MEASURING PHOTOTOXICITY OR PHOTOALLERGY AND REAGENT FOR USE THEREIN” (FUJIFILM Corporation, priority 2018, published 2022)

How the values were obtained:
[1] = NAC depletion under and without ultraviolet irradiation, HPLC with UV detection (281 nm)
[2] = NAL depletion under and without ultraviolet irradiation, HPLC with UV detection (281 nm)
[3] = Average score of NAC and NAL depletion and phototoxicity or photoallergy determination, UV detection
[4] = Average score of NAC and NAL depletion and phototoxicity or photoallergy determination, fluorescence detection
[5] = NAC depletion under and without ultraviolet irradiation, HPLC with fluorescence detection (284 nm excitation, 333 nm fluorescence)
[6] = NAL depletion under and without ultraviolet irradiation, HPLC with fluorescence detection (284 nm excitation, 333 nm fluorescence)
[7] = photoallergic compound concentration 0.2 mg/mL
[8] = photoallergic compound concentration 0.5 mg/mL
[9] = under light irradiation, photoallergic compound concentration 0.2 mg/mL
[10] = under light irradiation, photoallergic compound concentration 0.5 mg/mL
[11] = without light irradiation, photoallergic compound concentration 0.05 mg/mL
[12] = without light irradiation, photoallergic compound concentration 0.2 mg/mL
[13] = without light irradiation, photoallergic compound concentration 0.5 mg/mL
[14] = photoallergic compound concentration 0.05 mg/mL
[15] = under light irradiation, photoallergic compound concentration 0.05 mg/mL
[16] = 25° C. 24 hours light-shielded, test substance solution 1 mmol/L
[17] = 2,000 μW/cm^2 for 1 hour then 25° C. 23 hours, test substance solution 1 mmol/L
[18] = average of NAC and NAL depletion
[19] = without light irradiation, single compound

Nc1ccc(S(N)(=O)=O)cc1 [3-4, Sulfanilamide]
Difference in depletion (under light irradiation - without light irradiation) NAC (%) [1, 7]: 51.3%
Difference in depletion (under light irradiation - without light irradiation) NAC (%) [1, 8]: 79.4%
NAC Depletion (%) under light irradiation [1, 9]: 51.3%
NAC Depletion (%) under light irradiation [1, 10]: 79.4%
NAC Depletion (%) without light irradiation [1, 11]: 0.0%
NAC Depletion (%) without light irradiation [1, 12]: 0.0%
NAC Depletion (%) without light irradiation [1, 13]: 0.0%
Difference in depletion (under light irradiation - without light irradiation) NAL (%) [2, 14]: 0.0%
Difference in depletion (under light irradiation - without light irradiation) NAL (%) [2, 7]: 0.3%
Difference in depletion (under light irradiation - without light irradiation) NAL (%) [2, 8]: 0.0%
NAL Depletion (%) under light irradiation [2, 15]: 0.0%
NAL Depletion (%) under light irradiation [2, 9]: 0.3%
NAL Depletion (%) under light irradiation [2, 10]: 0.0%
NAL Depletion (%) without light irradiation [2, 11]: 0.0%
NAL Depletion (%) without light irradiation [2, 12]: 0.0%
NAL Depletion (%) without light irradiation [2, 13]: 0.0%
Difference in depletion (under light irradiation - without light irradiation) Average score (%) [3, 14]: 10.2%
Difference in depletion (under light irradiation - without light irradiation) Average score (%) [3, 8]: 39.7%
Average score (%) under light irradiation [3, 15]: 10.2%
Average score (%) under light irradiation [3, 10]: 39.7%
Average score (%) without light irradiation [3, 11]: 0.0%
Average score (%) without light irradiation [3, 12]: 0.0%
Average score (%) without light irradiation [3, 13]: 0.0%
Difference in depletion (under light irradiation - without light irradiation) Average score (%) [4, 14]: 11.8%
Difference in depletion (under light irradiation - without light irradiation) Average score (%) [4, 8]: 40.6%
Average score (%) under light irradiation [4, 14]: 11.8%
Average score (%) under light irradiation [4, 8]: 40.6%
Average score (%) without light irradiation [4, 11]: 0.0%
Average score (%) without light irradiation [4, 12]: 0.0%
Average score (%) without light irradiation [4, 13]: 0.0%
Difference in depletion (under light irradiation - without light irradiation) NAC (%) [5, 7]: 49.9%
Difference in depletion (under light irradiation - without light irradiation) NAC (%) [5, 8]: 78.2%
NAC Depletion (%) under light irradiation [5, 7]: 49.9%
NAC Depletion (%) under light irradiation [5, 8]: 78.2%
NAC Depletion (%) without light irradiation [5, 11]: 0.0%
NAC Depletion (%) without light irradiation [5, 12]: 0.0%
NAC Depletion (%) without light irradiation [5, 13]: 0.0%
Difference in depletion (under light irradiation - without light irradiation) NAL (%) [6, 14]: 2.4%
Difference in depletion (under light irradiation - without light irradiation) NAL (%) [6, 7]: 1.8%
Difference in depletion (under light irradiation - without light irradiation) NAL (%) [6, 8]: 3.1%
NAL Depletion (%) under light irradiation [6, 14]: 2.4%
NAL Depletion (%) under light irradiation [6, 7]: 1.8%
NAL Depletion (%) under light irradiation [6, 8]: 3.1%
NAL Depletion (%) without light irradiation [6, 11]: 0.0%
NAL Depletion (%) without light irradiation [6, 12]: 0.0%
NAL Depletion (%) without light irradiation [6, 13]: 0.0%

CC(O)CCO (stereo not shown) [compound 46]
Difference in depletion (under light irradiation - without light irradiation) NAC (%) [1]: 0.7%
NAC Depletion (%) without light irradiation [1, 16]: 0.0%
NAC Depletion (%) under light irradiation [1, 17]: 0.7%
Difference in depletion (under light irradiation - without light irradiation) NAL (%) [2]: 0.0%
NAL Depletion (%) without light irradiation [2, 16]: 0.0%
NAL Depletion (%) under light irradiation [2, 17]: 0.0%
Difference in depletion (under light irradiation - without light irradiation) Average score (%) [3]: 0.4%
Average score (%) under light irradiation [3, 18]: 0.4%
Average score (%) without light irradiation [3, 18]: 0.0%
Difference in depletion (under light irradiation - without light irradiation) Average score (%) ([4]; single compound): 0.1%
Average score (%) [4, 19]: 0.1%
Difference in depletion (under light irradiation - without light irradiation) NAC (%) ([5]; single compound): 0.2%
NAC Depletion (%) [5, 19]: 0.0%
Difference in depletion (under light irradiation - without light irradiation) NAL (%) ([6]; single compound): −0.1%
NAL Depletion (%) [6, 19]: 0.1%
